Measured values reported in patent US12172960B2, “Organic compound salts” (priority 2022, dated 2024).
In brackets after ≈: the same amount, converted by molar mass. Several values for one entry are separate records, joined by “and”; a condition that tells them apart may be missing. Equal values may be shown once.

Assays:
Assay type in all cases: physicochemical
[1] = Dynamic vapor sorption (DVS) analysis; conditions: for further increase between 60% RH and 90% RH / water gain up to 60% RH / total water absorption over the humidity range: first sorption cycle, hydrobromide; for further increase between 60% RH and 90% RH: 60% RH to 90% RH; for total water absorption over the humidity range: up to 90% RH
From the text: Dynamic vapor sorption (DVS) data was collected for both 5-MeO DMT HBr Pattern A and Pattern B. The DSV data are shown in FIG. 10 (Pattern A) und FIG. 11 (Pattern B). DVS profiles are almost identical.

[2] = Particle size distribution by laser light scattering; conditions: sample weight 800 mg; listed as HBr salt, hydrobromide
Experimental: The particle size distribution of a sample obtained as in the above example was determined using a laser light scattering method.

[3] = Flow properties (bulk density, tapped density); conditions: for Hausner Factor: Tapped density/Bulk density; for Carr's Index: calculated from tapped and bulk density
Experimental: The bulk density and the tapped density of an HBr salt sample as obtained according to the above method was determined applying standard methods. • Bulk density: 0.19 g/cm^3 • Tapped density: 0.25 g/cm^3 • From this, the Carr's Index characterizing flow properties can be calculated ([…]). The index is 24%.

[4] = Solubility and pH in water for injection (24 hours equilibration, 25° C.); conditions: for pH value of the suspension/solution after 24 hours: in water for injection, determined at 25° C.; for solubility at 24 h: water for injection, 24 hours of equilibration, 25° C.
Experimental: 5-MeO-DMT freebase and 5-MeO-DMT hydrobromide (30 mg) were weighed out into crystallisation tubes, water for injection (WFI; 150 μL, 5 vols) was charged and samples were left to equilibrate (25° C.) over 24 hours.
The free base led to a suspension. An additional 850 μl of water was added. The mixture was still a suspension. […] The pH value of the suspension after 24 hours was 9.93, determined at 25° C.
In the case of 5-MeO-DMT HBr, a solution was obtained. […] The pH value of the solution after 24 hours was 6.84, determined at 25° C.

Br.COc1ccc2[nH]cc(CCN(C)C)c2c1 [5-MeO-DMT HBr Pattern A, 5-methoxy-N,N-dimethyltryptamine hydrobromide]
modification of form following equilibration at extremes of relative humidity [1]: Neither form showed any modification | further increase between 60% RH and 90% RH [1]: 1.56 wt % | water gain up to 60% RH [1]: 0.13% | total water absorption over the humidity range [1]: 1.7 wt %

Br.COc1ccc2[nH]cc(CCN(C)C)c2c1 [5-MeO-DMT HBr Pattern B, 5-methoxy-N,N-dimethyltryptamine hydrobromide]
modification of form following equilibration at extremes of relative humidity [1]: Neither form showed any modification | further increase between 60% RH and 90% RH [1]: 1.57 wt % | water gain up to 60% RH [1]: 0.14% | total water absorption over the humidity range [1]: 1.71 wt %

Br.COc1ccc2[nH]cc(CCN(C)C)c2c1 [5-MeO-DMT HBr, 5-methoxy-N,N-dimethyltryptamine hydrobromide]
Dv10 [2]: 57.8 μm and 60.8 μm and 65.1 μm | Dv90 [2]: 613 μm and 630 μm and 643 μm | Bulk density [3]: 0.19 g/mL | Tapped density [3]: 0.25 g/mL | Hausner Factor [3]: 1.31 | Carr's Index [3]: 24% | pH value of the suspension/solution after 24 hours [4]: 6.84 | solubility at 24 h ([4]; pH 6.84, thermodynamic from solid): > 200000 µg/mL

COc1ccc2[nH]cc(CCN(C)C)c2c1 [free base, 5-Methoxy-N,N-dimethyltryptamine, reference compound]
Bulk density [3]: 0.32 g/mL | Tapped density [3]: 0.54 g/mL | Hausner Factor [3]: 1.68 | Carr's Index [3]: 41% | pH value of the suspension/solution after 24 hours [4]: 9.93 | solubility at 24 h ([4]; pH 9.93, thermodynamic from solid): 3290 µg/mL (≈ 15.1 mM)
